Assay results taken from article PMC9250534, “Synthesis and direct assay of large macrocycle diversities by combinatorial late-stage modification at picomole scale” (Nature Communications, 2022).

target: T1, thrombin (Homo sapiens, UniProt P00734); experiment: Thrombin inhibition screen of crude macrocycle reactions (residual thrombin activity, fluorogenic substrate Z-Gly-Gly-Arg-AMC); type: biochemical; details: 10 µM macrocycle concentration; crude reactions, Library 1a-l; scaffold AA1-AA2-AA3 combined with 1-16 or '-'
T1 construct: consists of two polypeptide chains of 36 (light chain) and 259 amino acid
Method: As a proof-of-concept, we screened the macrocycle library for inhibitors against thrombin, which is the central blood coagulation protease and an important therapeutic target. We conducted the screen for thrombin-inhibiting macrocycles in 384-well reaction plates. Briefly, each well contained a unique macrocycle (10 μM), 5 μL of thrombin (2 nM final conc.), and subsequently, 5 µL of a fluorogenic substrate to measure the residual thrombin activity and the extent of protease inhibition.
The assays were performed in 384-well plates using Tris buffer at pH 7.4 (100 mM Tris-Cl, 150 mM NaCl, 10 mM MgCl2, 1 mM CaCl2, 0.1% w/v BSA, 0.01% v/v Triton-X100, and 0.6% v/v DMSO) using thrombin at a final concentration of 2 nM and the fluorogenic substrate Z-Gly-Gly-Arg-AMC at a final concentration of 50 μM. Thrombin (5 μL, 6 nM) in the Tris-Cl buffer described above was added to each peptide using a BioTek MultiFlo microplate dispenser, and incubated for 10 min at room temperature. […] Data was collected and exported using the Tecan Infinite M200 Pro instrument software. […] For the negative controls (20 wells containing DMSO but no macrocycle), an average slope was calculated. The percent of thrombin inhibition was calculated by dividing the slopes and multiplying the results by 100.

| percent residual thrombin activity [%] | SMILES |
| --- | --- |
| 106.982 | CC[C@H](C)[C@@H]1NC(=O)[C@H](CCCNC(=O)c2snnc2C)NC(=O)c2cccc(c2)CNC(=O)CCSSCCNC1=O [B5-D2-I/15] |
| 105.125 | CC[C@H](C)[C@@H]1NC(=O)[C@H](CCCNC(=O)c2ccco2)NC(=O)c2cccc(c2)CNC(=O)CCSSCCNC1=O [B5-D2-I/16] |
| 101.444 | COc1ccc(C(=O)NCCCC[C@@H]2NC(=O)[C@H](CO)NC(=O)c3cccc(c3)CNC(=O)CCSSCCNC2=O)cn1 [B5-S-D1/10] |
| 101.194 | CC(C)CC(=O)NCCCC[C@@H]1NC(=O)C2(CC2)CNC(=O)CCSSCCNC(=O)[C@H](CCC(N)=O)NC1=O [B6-D1-Q/8] |
| 105.488 | NC(=O)CC[C@@H]1NC(=O)[C@H](CCCCNC(=O)c2c[nH]c(=O)[nH]c2=O)NC(=O)C2(CC2)CNC(=O)CCSSCCNC1=O [B6-D1-Q/11] |
| 101.173 | NC(=O)CC[C@@H]1NC(=O)[C@H](CCCCNC(=O)c2ccco2)NC(=O)C2(CC2)CNC(=O)CCSSCCNC1=O [B6-D1-Q/16] |
| 103.82 | NCCCC[C@@H]1NC(=O)C2(CC2)CNC(=O)CCSSCCNC(=O)[C@H](CCC(N)=O)NC1=O [B6-D1-Q/-] |
| 109.823 | CC(C)C[C@@H]1NC(=O)[C@H](CCCNC(=O)c2c[nH]c(=O)cn2)NC(=O)C2(CC2)CNC(=O)CCSSCCNC1=O [B6-D2-L/9] |
| 118.291 | CC(C)C[C@@H]1NC(=O)[C@H](CCCNC(=O)COc2ccccc2)NC(=O)C2(CC2)CNC(=O)CCSSCCNC1=O [B6-D2-L/13] |
| 108.209 | CC(C)[C@@H]1NC(=O)[C@H](CCCNC(=O)c2ccccc2)NC(=O)C2(CC2)CNC(=O)CCSSCCNC1=O [B6-D2-V/1] |
| 112.468 | CC(C)[C@@H]1NC(=O)[C@H](CCCN)NC(=O)C2(CC2)CNC(=O)CCSSCCNC1=O [B6-D2-V/-] |
| 97.8863 | O=C1CCSSCCNC(=O)[C@H](Cc2c[nH]c3ccccc23)NC(=O)[C@H](CCCNC(=O)c2ccccc2)NC(=O)C2(CC2)CN1 [B6-D2-W/1] |
| 95.9188 | O=C1CCSSCCNC(=O)[C@H](Cc2c[nH]c3ccccc23)NC(=O)[C@H](CCCNC(=O)c2cnccn2)NC(=O)C2(CC2)CN1 [B6-D2-W/2] |
| 93.1158 | COc1ccc(C(=O)NCCC[C@@H]2NC(=O)C3(CC3)CNC(=O)CCSSCCNC(=O)[C@H](Cc3c[nH]c4ccccc34)NC2=O)cn1 [B6-D2-W/10] |
| 94.9215 | O=C1CCSSCCNC(=O)[C@H](Cc2c[nH]c3ccccc23)NC(=O)[C@H](CCCNC(=O)c2c[nH]c(=O)[nH]c2=O)NC(=O)C2(CC2)CN1 [B6-D2-W/11] |
| 93.2541 | O=C1CCSSCCNC(=O)[C@H](Cc2c[nH]c3ccccc23)NC(=O)[C@H](CCCNC(=O)Cc2c[nH]c3ccccc23)NC(=O)C2(CC2)CN1 [B6-D2-W/12] |
| 95.6589 | O=C1CCSSCCNC(=O)[C@H](Cc2c[nH]c3ccccc23)NC(=O)[C@H](CCCNC(=O)COc2ccccc2)NC(=O)C2(CC2)CN1 [B6-D2-W/13] |
| 103.129 | CC(C)CC(=O)NCCC[C@@H]1NC(=O)C2(CC2)CNC(=O)CCSSCCNC(=O)[C@H](Cc2ccc(O)cc2)NC1=O [B6-D2-Y/8] |
| 103.418 | O=C1CCSSCCNC(=O)[C@H](Cc2ccc(O)cc2)NC(=O)[C@H](CCCNC(=O)c2c[nH]c(=O)cn2)NC(=O)C2(CC2)CN1 [B6-D2-Y/9] |
| 102.307 | COc1ccc(C(=O)NCCC[C@@H]2NC(=O)C3(CC3)CNC(=O)CCSSCCNC(=O)[C@H](Cc3ccc(O)cc3)NC2=O)cn1 [B6-D2-Y/10] |
| 102.523 | O=C1CCSSCCNC(=O)[C@H](Cc2ccc(O)cc2)NC(=O)[C@H](CCCNC(=O)c2c[nH]c(=O)[nH]c2=O)NC(=O)C2(CC2)CN1 [B6-D2-Y/11] |
| 103.867 | O=C1CCSSCCNC(=O)[C@H](Cc2ccc(O)cc2)NC(=O)[C@H](CCCNC(=O)Cc2c[nH]c3ccccc23)NC(=O)C2(CC2)CN1 [B6-D2-Y/12] |
